From patent USRE37781E1, “Substituted cyclic carbonyls and derivatives thereof useful as retroviral protease inhibitors” (DuPont Pharmaceuticals Company, priority 1991, dated 2002) come the findings set out here.

In the first assay the test system is HIV-1 (RF) in MT-2 cells. The assay can be described thus: microbe, parasite or virus in culture. It is filed as cell-based. The following applies: Table 2d; HIV RNA assay. As for the experimental part:
DNA Plasmids and in vitro RNA transcripts:
Plasmid pDAB 72 containing both gag and pol sequences of BH10 (bp 113-1816) cloned into PTZ 19R was prepared according to Erickson-Viitanen et al. AIDS Research and Human Retroviruses 1989, 5, 577. The plasmid was linearized with Bam HI prior to the generation of in vitro RNA transcripts using the Riboprobe Gemini system II kit (Promega) with T7 RNA polymerase. Synthesized RNA was purified by treatment with RNase free DNAse (Promega), phenol-chloroform extraction, and ethanol precipitation. RNA transcripts were dissolved in water, and stored at −70° C. The concentration of RNA was determined from the A260.
Biotinylated capture probes were purified by HPLC after synthesis on an Applied Biosystems (Foster City, Calif.) DNA synthesizer by addition of biotin to the 5′ terminal end of the oligonucleotide, using the biotin-phosphoramidite reagent of Cocuzza, Tet. Lett. 1989, 30, 6287. The gag biotinylated capture probe (5-biotin-[…] 3′) was complementary to nucleotides 889-912 of HXB2 and the pol biotinylated capture probe (5′-biotin-[…] 3′) was complementary to nucleotides 2374-2395 of HXB2. Alkaline phosphatase conjugated oligonucleotides used as reporter probes were prepared by Syngene (San Diego, Calif.). The pol reporter probe (5′ […] 3′) was complementary to nucleotides 2403-2425 of HXB2. The gag reporter probe (5′ […] 3′) was complementary to nucleotides 950-973 of HXB2. All nucleotide positions are those of the GenBank Genetic Sequence Data Bank as accessed through the Genetics Computer Group Sequence Analysis Software Package (Devereau Nucleic Acids Research 1984, 12, 387). The reporter probes were prepared as 0.5μM stocks in 2× SSC (0.3M NaCl, 0.03M sodium citrate), 0.05M Tris pH 8.8, 1 mg/mL BSA. The biotinylated capture probes were prepared as 10 μM stocks in water.
Streptavidin coated plates:
Nunc-immunomodule microtiter plate strips were coated by addition of 200 μL of streptavidin (30 ug/mL, Scripps, La Jolla, Calif.) in freshly prepared 10 mM sodium carbonate (pH 9.6). Plates were incubated overnight at 4° C. Streptavidin solution was aspirated from the wells and a blocking buffer composed of phosphate buffered saline (PBS), 20 mg/mL bovine serum albumin (crystalline, nuclease and protease free, Calbiochem) and 100 mg/mL lactose (Sigma) was added to the plates for 3 hrs at room temperature. Blocking buffer was removed from the wells, which were allowed to dry overnight at room temperature and subsequently stored at 4° C. in zip lock bags with desiccant. For the majority of the compound evaluation experiments, streptavidin coated plates were obtained from Du Pont Biotechnology Systems (Boston, Mass.).
MT-2, CEM, and H9 cells were maintained in RPMI 1640 supplemented with 5% fetal calf serum (FCS), 2 mM L-glutamine and 50 μg/mL gentamycin, all from Gibco. Laboratory strains of HIV-1 (RF, MN and IIIB) were propagated in H9 cells in the same medium. Virus stocks were prepared approximately 1 month after acute infection of H9 cells by clarification of the tissue culture medium and storage of aliquots at −70° C. […] Each aliquot of virus stock used for infection was thawed only once. In some cases, infected H9 cells were shifted to Dulbecco's modified Eagle's medium 3-10 days before collection of virus in order to generate virus stocks in medium with low biotin content. Clinical isolates of HIV that had been passaged once in MT-2 cells were used to infect fresh MT-2 cells in RPMI medium. Three days after infection, cells were pelleted, resuspended and culture continued in Dulbecco's modified Eagle's medium as above. Virus stocks of clinical isolates were prepaid 10-15 days after infection when cytopathic effects were apparent in the culture.
On to `Nc1n[nH]c2ccc(CN3C(=O)N(Cc4ccc5[nH]nc(N)c5c4)C(Cc4ccccc4)C(O)C(O)C3Cc3ccccc3)cc12` (stereo not shown) [15DF], for which the IC90 entry is recorded as “+++ (+++=<10 μg/mL)”.
Consider `Nc1noc2ccc(CN3C(=O)N(Cc4ccc5onc(N)c5c4)C(Cc4ccccc4)C(O)C(O)C3Cc3ccccc3)cc12` (stereo not shown) [15DG], for which the IC90 entry was “+++ (+++=<10 μg/mL)”.
The same measure, in the same setting: the same measure for `CNc1n[nH]c2ccc(CN3C(=O)N(Cc4ccc5[nH]nc(NC)c5c4)C(Cc4ccccc4)C(O)C(O)C3Cc3ccccc3)cc12` (stereo not shown) [15DH]: “+++ (+++=<10 μg/mL)”.
On to `O=C1N(Cc2ccc3[nH]nc(Cl)c3c2)C(Cc2ccccc2)C(O)C(O)C(Cc2ccccc2)N1Cc1ccc2[nH]nc(Cl)c2c1` (stereo not shown) [15DI], for which the IC90 result is “+++ (+++=<10 μg/mL)”.
On to `CCNc1n[nH]c2ccc(CN3C(=O)N(Cc4ccc5[nH]nc(NCC)c5c4)C(Cc4ccccc4)C(O)C(O)C3Cc3ccccc3)cc12` (stereo not shown) [15DJ], for which the IC90 result was “+++ (+++=<10 μg/mL)”.
Take `O=C1N(Cc2ccccc2)C(Cc2ccccc2)C(O)C(O)C(Cc2ccccc2)N1Cc1ccc2[nH]nnc2c1` (stereo not shown) [15DN]: the IC90 entry is reported as “+++ (+++=<10 μg/mL)”.
Consider `O=C1N(Cc2ccc3ccccc3c2)C(Cc2ccccc2)C(O)C(O)C(Cc2ccccc2)N1Cc1ccc2[nH]nnc2c1` (stereo not shown) [15DO], for which the IC90 entry is on record as “+++ (+++=<10 μg/mL)”.
For the compound `O=C1N(Cc2ccc3[nH]nnc3c2)C(Cc2ccccc2)C(O)C(O)C(Cc2ccccc2)N1CC1CC1` (stereo not shown) [15DP], the IC90 entry is on record as “+++ (+++=<10 μg/mL)”.
In the case of `O=C1N(Cc2cccc(O)c2)C(Cc2ccccc2)C(O)C(O)C(Cc2ccccc2)N1Cc1ccc2[nH]nnc2c1` (stereo not shown) [15DR], the IC90 result is “+++ (+++=<10 μg/mL)”.
The same measure, in the same setting: next, `COC(=O)Cc1cccc(CN2C(=O)N(Cc3cccc(CC(=O)OC)c3)C(Cc3ccccc3)C(O)C(O)C2Cc2ccccc2)c1` (stereo not shown) [15DW]: “+++ (+++=<10 μg/mL)”.
The same measure, in the same setting: next, `O=C1N(Cc2cccc(CCO)c2)C(Cc2ccccc2)C(O)C(O)C(Cc2ccccc2)N1Cc1cccc(CCO)c1` (stereo not shown) [15DX]: “+++ (+++=<10 μg/mL)”; `O=C1N(Cc2cccc(CO)c2)C(Cc2ccccc2)C(O)C(O)C(Cc2ccccc2)N1Cc1ccccc1O` (stereo not shown) [15EB]: “+++ (+++=<10 μg/mL)”; `NC(=O)c1cc(CN2C(=O)N(Cc3ccc(F)c(C(N)=O)c3)C(Cc3ccccc3)C(O)C(O)C2Cc2ccccc2)ccc1F` (stereo not shown) [15ED]: “++ (++=10 to 100 μg/mL)”.
In the case of `COC(=O)c1cc(CN2C(=O)N(Cc3ccc(F)c(C(=O)OC)c3)C(Cc3ccccc3)C(O)C(O)C2Cc2ccccc2)ccc1F` (stereo not shown) [15EE], the IC90 result was “+ (+=>100 μg/mL)”.
For the compound `NC(=NO)c1cc(CN2C(=O)N(Cc3ccc(F)c(C(N)=NO)c3)C(Cc3ccccc3)C(O)C(O)C2Cc2ccccc2)ccc1F` (stereo not shown) [15EF], the IC90 result is listed as “+++ (+++=<10 μg/mL)”.
With `O=C1N(Cc2ccc(F)c(CO)c2)C(Cc2ccccc2)C(O)C(O)C(Cc2ccccc2)N1Cc1ccc(F)c(CO)c1` (stereo not shown) [15EG], the IC90 entry is “+++ (+++=<10 μg/mL)”.
As for `NC(=O)c1cc(CN2C(=O)N(Cc3ccc(F)c(C(N)=NO)c3)C(Cc3ccccc3)C(O)C(O)C2Cc2ccccc2)ccc1F` (stereo not shown) [15EH], the IC90 result is “+++ (+++=<10 μg/mL)”.

A further assay has as its target single-chain tethered dimer of HIV protease (Human immunodeficiency virus 1, UniProt P04585). Description: biochemical. Also on record: fused on or other part: A second copy of the same protease unit is joined to the first by a short peptide tether, giving one polypeptide. The following applies: Table 2d; HIV protease inhibition, HPLC method; read-out: HPLC K1. The format is biochemical.
Consider `Nc1n[nH]c2ccc(CN3C(=O)N(Cc4ccc5[nH]nc(N)c5c4)C(Cc4ccccc4)C(O)C(O)C3Cc3ccccc3)cc12` (stereo not shown) [15DF], for which the Ki is below 10 nM.
The same measure, in the same setting: the same measure for `Nc1noc2ccc(CN3C(=O)N(Cc4ccc5onc(N)c5c4)C(Cc4ccccc4)C(O)C(O)C3Cc3ccccc3)cc12` (stereo not shown) [15DG]: below 10 nM; for `CNc1n[nH]c2ccc(CN3C(=O)N(Cc4ccc5[nH]nc(NC)c5c4)C(Cc4ccccc4)C(O)C(O)C3Cc3ccccc3)cc12` (stereo not shown) [15DH]: below 10 nM.
Regarding `O=C1N(Cc2ccc3[nH]nc(Cl)c3c2)C(Cc2ccccc2)C(O)C(O)C(Cc2ccccc2)N1Cc1ccc2[nH]nc(Cl)c2c1` (stereo not shown) [15DI], the Ki is below 10 nM.
Still for that read-out and setting: the same measure for `CCNc1n[nH]c2ccc(CN3C(=O)N(Cc4ccc5[nH]nc(NCC)c5c4)C(Cc4ccccc4)C(O)C(O)C3Cc3ccccc3)cc12` (stereo not shown) [15DJ]: below 10 nM.
On to `O=C1N(Cc2ccccc2)C(Cc2ccccc2)C(O)C(O)C(Cc2ccccc2)N1Cc1ccc2[nH]nnc2c1` (stereo not shown) [15DN], for which the Ki was below 10 nM.
Turning to `O=C1N(Cc2ccc3ccccc3c2)C(Cc2ccccc2)C(O)C(O)C(Cc2ccccc2)N1Cc1ccc2[nH]nnc2c1` (stereo not shown) [15DO], the Ki is below 10 nM.
In the case of `O=C1N(Cc2ccc3[nH]nnc3c2)C(Cc2ccccc2)C(O)C(O)C(Cc2ccccc2)N1CC1CC1` (stereo not shown) [15DP], the Ki is below 10 nM.
Turning to `O=C1N(Cc2cccc(O)c2)C(Cc2ccccc2)C(O)C(O)C(Cc2ccccc2)N1Cc1ccc2[nH]nnc2c1` (stereo not shown) [15DR], the Ki is below 10 nM.
Still for that read-out and setting: next, `COC(=O)Cc1cccc(CN2C(=O)N(Cc3cccc(CC(=O)OC)c3)C(Cc3ccccc3)C(O)C(O)C2Cc2ccccc2)c1` (stereo not shown) [15DW]: below 10 nM; `O=C1N(Cc2cccc(CCO)c2)C(Cc2ccccc2)C(O)C(O)C(Cc2ccccc2)N1Cc1cccc(CCO)c1` (stereo not shown) [15DX]: below 10 nM.
For the compound `O=C1N(Cc2cccc(CO)c2)C(Cc2ccccc2)C(O)C(O)C(Cc2ccccc2)N1Cc1ccccc1O` (stereo not shown) [15EB], the Ki lay in the range of 10 to 1000 nM.
For the compound `NC(=O)c1cc(CN2C(=O)N(Cc3ccc(F)c(C(N)=O)c3)C(Cc3ccccc3)C(O)C(O)C2Cc2ccccc2)ccc1F` (stereo not shown) [15ED], the Ki is below 10 nM.
Still for that read-out and setting: next, `COC(=O)c1cc(CN2C(=O)N(Cc3ccc(F)c(C(=O)OC)c3)C(Cc3ccccc3)C(O)C(O)C2Cc2ccccc2)ccc1F` (stereo not shown) [15EE]: below 10 nM.
For `NC(=NO)c1cc(CN2C(=O)N(Cc3ccc(F)c(C(N)=NO)c3)C(Cc3ccccc3)C(O)C(O)C2Cc2ccccc2)ccc1F` (stereo not shown) [15EF], the Ki is below 10 nM.
Turning to `O=C1N(Cc2ccc(F)c(CO)c2)C(Cc2ccccc2)C(O)C(O)C(Cc2ccccc2)N1Cc1ccc(F)c(CO)c1` (stereo not shown) [15EG], the Ki was below 10 nM.
Take `NC(=O)c1cc(CN2C(=O)N(Cc3ccc(F)c(C(N)=NO)c3)C(Cc3ccccc3)C(O)C(O)C2Cc2ccccc2)ccc1F` (stereo not shown) [15EH]: the Ki is below 10 nM.
